The subject of test [1] is WR19L (mouse, lymphoma). Put plainly: Cell growth inhibition assay, WR19L. Conditions: five days of incubation, XTT; read-out: IC50 WR19L (ms). It counts as cell-based. The procedure: (§1) In this study, compounds 1-8 were screened in vitro against a panel of four mouse lymphoma cell lines and two human lymphoma cell line for cell growth inhibition activity. Following treatment, half maximal inhibitory concentrations (IC50) were determined with the objective of selecting the most efficacious compounds for evaluation of in vitro absorption, distribution, metabolism, and excretion (ADME) screening.
(§2) Similarly, human Burkitt's lymphoma Ramos cells (ATCC CRL-1596) were grown in suspension in Roswell Park Memorial Institute (RPMI) 1640 medium supplemented with 10% fetal bovine serum (FBS), 10 mM HEPES KOH pH 7.4, and 2 mM sodium pyruvate. Mouse P388D1 (ATCC CCL-46) and WR19L (ATCC TIB-52) cells were grown in suspension in Dulbecco's Modified Eagle Medium (DMEM) with 10% fetal bovine serum (FBS), 10 mM HEPES, and 2 mM sodium pyruvate. Mouse WEHI231 (ATCC CRL-1702) and EL4 (ATCC TIB-39) cells were grown in suspension in DMEM with 10% fetal bovine serum (FBS), 10 mM HEPES KOH pH 7.4, 2 mM sodium pyruvate, and 0.05 mM β-mercaptoethanol. All cells were maintained at 37° C. in an atmosphere of 5% CO2 in air. Logarithmically growing cells were routinely sub-cultured twice weekly. Briefly, cells were collected by centrifugation, resuspended in pre-warmed media, and diluted 1:10 into a 75 cm^2 flask.
(§3) Cells were subcultured and 4×10^3 cells (in 50 μL) were transferred to each well in a Falcon 96-well tissue culture plate. Exemplary compounds were dissolved in pure dimethyl sulphoxide (DMSO) at a concentration of 10 mM. From this 10 mM stock solution, 12 successive serial dilutions were made in DMSO (2.5 fold dilutions), ranging from 0.52 μM to 10 mM. Using these stock dilutions, 5 μL of each were added to 500 μL of media, and 50 μL of this was added to the cells. The final concentrations being tested ranged from 0.0026 μM to 50 μM. Each concentration was tested in triplicate, and DMSO and untreated cells were also included as controls. After five days of incubation with the compounds, cell viability was determined using the XTT cell proliferation kit (Roche, Cat. No. 11 465 015 001). Following the XTT protocol, 4.5-24 hours after addition of the reagent, the plates were read in a μQuant 96-well plate spectrophotometer (Biotek Instruments Inc.) and the results analyzed to determine the IC50.

Test [2] concerns human renal cancer cells ACHN. Put plainly: XTT cell proliferation assay, ACHN. In kind it is cell-based. The note with it: 5 days incubation, read-out: Antiproliferative activity, Kidney ACHN. How it is done:
(§4) Exemplary compounds 1-8 were tested for anti-cancer activity in vitro using human renal cancer cells (ACHN and CAK-1), human pancreatic cells (BXPC3 and SU-86-86), human prostate cancer cell (DU14), human colon carcinoma cells (HT-29 and KM-12), leukemia cells (HL60), brain cancer/tumour cells (SK-A-AS, U87-MG), and human non-small cell lung cancer cells (H460). Compounds 1-8 are the specific embodiments of Formula (I) and Formula (IV) as described above in this application.
(§5) The cells were maintained as a monolayer in a growth medium; McCoy's 5A modified medium (Sigma, St. Louis, Mo.), supplemented with 2 mM L-glutamine (Gibco, Grand Island, N.Y.), 10% fetal bovine serum (FBS) (Multicell, WISENT Inc. St-Bruno, QC), antibiotic-antimycotic (Multicell), at 37° C. in a 5% CO2-humidified incubator. Cells were transferred onto 150 mm tissue culture plates and grown until sub-confluency (70-80%) prior to their use. The in vitro antiproliferative activity of compounds was evaluated by incubating the cells with varying concentrations of exemplary compounds as shown in Table 1 for 5 days. The efficacy of these compounds in this cell proliferation assay was measured based in the ability of live cells to reduce the tetrazolium salt XTT to orange colored compounds of formazan (XTT cell proliferation kit IT, Roche Applied Science, Montreal, QC).

In test [3] the test system is non-small cell lung cancer cells HOP-62. The test can be described thus: XTT cell proliferation assay, HOP-62. In kind it is cell-based, human. Conditions: 5 days incubation, read-out: Antiproliferative activity, NSCLC HOP-62. How it is done:
[The procedure below names another cell line; the source lists this cell line under the same test.] as §4, §5

Test [4] has as its system non-small cell lung cancer cells EKVX. The test can be described thus: XTT cell proliferation assay, EKVX. It counts as cell-based, human. Conditions: 5 days incubation, read-out: Antiproliferative activity, NSCLC EKVX. The procedure: [The procedure below names another cell line; the source lists this cell line under the same test.] as §4, §5
In test [5] the test system is P388D1 (mouse, lymphoma). Put plainly: Cell growth inhibition assay, P388D1. In kind it is cell-based. The note with it: five days of incubation, XTT; read-out: IC50 P388D1 (ms). How it is done: as §1, §2, §3
The test system of test [6] is EL4 (mouse, lymphoma). The test can be described thus: Cell growth inhibition assay, EL4. Conditions: five days of incubation, XTT; read-out: IC50 EL4 (ms). In kind it is cell-based. How it is done: as §1, §2, §3
Test [7] relates to pancreatic cancer (BxPC-3). The test can be described thus: Pancreatic cancer (BxPC-3) xenograft model. Conditions: pancreatic carcinoma BxPC-3; vs vehicle-treated control; FIG. 5. In kind it is in vivo, CD-1 female nude mice. The procedure: (§6) The ability of compound 1 to inhibit colon tumour growth in vivo was tested as follows. CD-1 female nude mice (7 mice per treatment group, 6-7 weeks) were injected […] with human colon adenocarcinoma cells HT-29 cells (3×10^6 cells in 0.1 ml PBS). Treatment of the mice with vehicle or 50 mg/kg/d of […] was initiated 5 days post-inoculation (size of tumours=20-40 mm^3) for 7-day cycles of five days followed by a 2 day break for 5 weeks. The size of the tumours was measured over the course of the experiment using calipers, and the weight of the tumours was measured after the animals were sacrificed.
(§7) The ability of compound 1 to inhibit renal cell carcinoma growth (see FIG. 4), to inhibit pancreatic carcinoma growth (FIG. 5), to inhibit large-cell lung carcinoma cell growth (FIG. 6), and to inhibit Glioblastoma cell growth (FIG. 7) was also tested following the general procedure as discussed above.

The test system of test [8] is panel of human and mouse lymphoma cell lines. The test can be described thus: Cell growth inhibition, whole lymphoma panel (mean IC50, mean rank). In kind it is cell-based. The note with it: mean over six lymphoma cell lines. The procedure:
as §1, §3
In vitro potency was assessed using eight exemplary compounds against a panel of human and mouse lymphoma cell lines (Table 4). […] To compare the efficacy of the compounds in cell growth inhibition across the entire panel of cell lines screened, the eight compounds were ranked according to efficacy against each cell line with a numerical value of one indicating most efficacious (lowest IC50 value) and eight being the least efficacious (highest IC50 value).

Test [9] relates to colon carcinoma KM-12 cells. The test can be described thus: Colon carcinoma (KM-12) xenograft model. It counts as in vivo, CD-1 female nude mice. The note with it: vs vehicle-treated control, FIG. 2. The procedure: as §6
Similar tests were conducted with colon carcinoma KM-12 cells and colon carcinoma SW-620 cells.

Test [10] has as its system renal cell carcinoma (ACHN). The test can be described thus: Renal cell carcinoma (ACHN) xenograft model. In kind it is in vivo, CD-1 female nude mice. The note with it: vs vehicle-treated control, FIG. 4. The procedure:
as §6, §7

Structures are written as SMILES. pIC50: −log10 of the molar value.

As to `FC1(F)Oc2ccc(-c3nc4c5cccnc5c5ncccc5c4[nH]3)cc2O1` [Compound 1], the pIC50 in test [1] is 7.09; in test [2] it was 6.77; in test [3], 6.68; in test [4] it was 6.66; in test [5], 6.43; in [6] it was 6.32. Also, the pIC50 in test [8] was 6.68. Moreover, the “inhibition of tumour growth, as measured by tumour size” value in [7], in [9] and in test [10] was “able to inhibit tumour growth” throughout.

(Values after US9309247B2, “2-substituted imidazo[4,5-D]phenanthroline derivatives and their use in the treatment of cancer” (Aptose Biosciences Inc., priority 2013, dated 2016).)
